Some test systems named below: HCT-116 colon; HCT-15 colon; HOP-92 NSCLC; KM12 colon; MALME-3M melanoma; SF-539 CNS; SR leukemia; T-47D breast; UACC-257 melanoma; UACC-62 melanoma.
Holding throughout (experiment): NCI-60 cell line screen, 48 h

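A five-concentration, 48-hour dose response in 96-well plates underlies each endpoint, interpolated linearly between surrounding concentrations. Here, GI50 denotes the concentration required for 50% inhibition of growth. TGI denotes the concentration required for complete inhibition of growth.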

For `COC(C(=O)[C@@H](O)[C@@H](C)O)[C@@H]1Cc2cc3cc(O[C@H]4C[C@@H](O[C@H]5C[C@@H](O)[C@H](O)C(C)O5)[C@H](O)C(C)O4)c(C)c(O)c3c(O)c2C(=O)[C@H]1O[C@H]1C[C@@H](O[C@H]2C[C@@H](O[C@H]3C[C@@H](O)[C@H](OC)C(C)O3)[C@@H](O)C(C)O2)[C@H](O)C(C)O1` (stereo partly specified), the GI50 was 11.2 nM in the test with HCT-116 colon; 0.272 µM in the test with HCT-15 colon; 0.0122 µM with HOP-92 NSCLC; 11 nM with MALME-3M melanoma; 0.0142 µM in the test on SF-539 CNS; 0.0139 µM in the test on T-47D breast. Moreover, the GI50 in the test with UACC-257 melanoma was 0.013 µM; in the test with UACC-62 melanoma, 0.00659 µM. Moreover, the TGI was more than 33.3 µM in the test with HCT-116 colon; more than 33.3 µM in the test with HCT-15 colon; 1.27 µM in the test with HOP-92 NSCLC; more than 33.3 µM with KM12 colon; 0.088 µM in the test on MALME-3M melanoma; 0.101 µM in the test on SF-539 CNS. The TGI with SR leukemia was more than 33.3 µM; with T-47D breast, 0.237 µM; in the test on UACC-257 melanoma it was 0.101 µM; with UACC-62 melanoma, 0.0217 µM.

With `COCOc1ccc(C2(O)Oc3cc(OCOC)ccc3C2C)c(O)c1` (stereo unspecified), the TGI was 27.6 µM in the test with HCT-116 colon; 22.3 µM with HCT-15 colon; 30.5 µM with HOP-92 NSCLC; 31.7 µM in the test with KM12 colon; 28.7 µM in the test with MALME-3M melanoma; 29.1 µM in the test with SF-539 CNS. Also, the TGI in the test on SR leukemia worked out at 75.1 µM; in the test on T-47D breast it was 25.8 µM; with UACC-257 melanoma it was 24.5 µM; with UACC-62 melanoma it was 25.5 µM.

Consider `O=C(NO)c1ccc(CN(c2cnccn2)c2cnccn2)cc1`, for which the GI50 in the test on HCT-116 colon is 6040 nM; in the test with HCT-15 colon, 18.5 µM; with HOP-92 NSCLC, 16.4 µM; in the test with KM12 colon, 10.3 µM; with MALME-3M melanoma, 7900 nM; in the test with SF-539 CNS it was 14.1 µM. In addition, the GI50 in the test with SR leukemia was 6.22 µM; in the test on T-47D breast it was 9.55 µM; with UACC-257 melanoma, 5.77 µM; in the test on UACC-62 melanoma, 6.71 µM. Also, the TGI was found to be 28.9 µM in the test on HCT-116 colon; 46.8 µM in the test on HCT-15 colon; 35.1 µM in the test with HOP-92 NSCLC; 24.2 µM in the test on KM12 colon; 23.8 µM with MALME-3M melanoma; 34.6 µM with SF-539 CNS. Also, the TGI in the test with SR leukemia is more than 100 µM; with T-47D breast, 38.1 µM; in the test on UACC-257 melanoma, 22.2 µM; in the test with UACC-62 melanoma, 28.5 µM.

On to `O=C1CSC(c2ccc(-c3nc4ccccc4s3)cc2)=N1`, for which the GI50 in the test with HCT-116 colon was 24700 nM; in the test with HCT-15 colon, 51.9 µM; with HOP-92 NSCLC it was more than 100 µM; with KM12 colon it was 3.11 µM; with SR leukemia, 13.1 µM; in the test on T-47D breast, 90.9 µM. In addition, the GI50 in the test on UACC-257 melanoma was 30.8 µM; in the test with UACC-62 melanoma it was 18 µM. Moreover, the TGI with HCT-116 colon is more than 100 µM; with HCT-15 colon it was more than 100 µM; with HOP-92 NSCLC, more than 100 µM; in the test on KM12 colon, 13.8 µM; with SR leukemia, 59.8 µM; in the test with T-47D breast it was more than 100 µM. In addition, the TGI came to 75.7 µM in the test on UACC-257 melanoma and 45.2 µM with UACC-62 melanoma.

As for `Clc1ccc(N=CNc2ccc(-c3nc4ccccc4o3)cc2)cc1`, the GI50 is more than 100000 nM with HCT-116 colon; 24.5 µM in the test with HCT-15 colon; 57.1 µM with HOP-92 NSCLC; 15.4 µM in the test with KM12 colon; 14.8 µM in the test with SF-539 CNS; 40.6 µM in the test on SR leukemia. Besides, the GI50 is 13.1 µM in the test with T-47D breast, 32.4 µM in the test on UACC-257 melanoma and 25.3 µM in the test on UACC-62 melanoma. The TGI with HCT-116 colon was more than 100 µM; with HCT-15 colon, more than 100 µM; in the test with HOP-92 NSCLC, more than 100 µM; in the test with KM12 colon it was 38.7 µM; in the test on SF-539 CNS, 45.7 µM; with SR leukemia, more than 100 µM. In addition, the TGI was 52.1 µM with T-47D breast, more than 100 µM in the test on UACC-257 melanoma and more than 100 µM in the test on UACC-62 melanoma.

Turning to `CCN(CC)c1cc2oc3cc(N)cc(=N)c-3nc2cc1C`, the GI50 is 1830 nM in the test on HCT-116 colon; 3.14 µM in the test with HCT-15 colon; 20.2 µM in the test with HOP-92 NSCLC; 3.93 µM in the test with KM12 colon; 2160 nM with MALME-3M melanoma; 3.44 µM with SF-539 CNS. The GI50 in the test with T-47D breast is 5.04 µM; with UACC-257 melanoma, 3.11 µM; in the test on UACC-62 melanoma it was 2.06 µM. In addition, the TGI in the test on HCT-116 colon is 5.69 µM; with HCT-15 colon, more than 100 µM; with HOP-92 NSCLC it was 79.7 µM; with KM12 colon it was 29.8 µM; in the test with MALME-3M melanoma, 6.08 µM; in the test on SF-539 CNS, 14.2 µM. The TGI came to 43.8 µM in the test on T-47D breast, 34 µM in the test on UACC-257 melanoma and 5.94 µM in the test on UACC-62 melanoma.

Take `O=C(CSC(c1ccccc1)c1ccccc1)N/N=C/c1ccco1`: the GI50 is 1460 nM in the test on HCT-116 colon; 2.12 µM in the test with HCT-15 colon; 1.44 µM in the test on HOP-92 NSCLC; 2.03 µM in the test on KM12 colon; 1530 nM in the test with MALME-3M melanoma; 2.07 µM in the test with SF-539 CNS. The GI50 is 28.3 µM in the test on T-47D breast and 2.52 µM in the test on UACC-62 melanoma. The TGI with HCT-116 colon came to 2.98 µM; in the test with HCT-15 colon, 4.38 µM; in the test on HOP-92 NSCLC, 2.97 µM; in the test on KM12 colon, 15.5 µM; with MALME-3M melanoma it was 2.94 µM; in the test on SF-539 CNS it was 7.55 µM. Besides, the figures for the TGI in the test with T-47D breast, with UACC-257 melanoma and in the test with UACC-62 melanoma were more than 100 µM, 0.935 µM and 16.2 µM, respectively.

As to `O=C(O)C12CC3(C(=O)O)CC(C(=O)O)(CC(C(=O)O)(C1)C3=O)C2=O`, the TGI with HCT-116 colon, with HCT-15 colon, in the test on HOP-92 NSCLC, with KM12 colon, with MALME-3M melanoma and with SR leukemia was more than 100 µM in each case. In addition, the TGI in the test on T-47D breast, with UACC-257 melanoma and with UACC-62 melanoma was more than 100 µM throughout.

The values above are taken from PubChem BioAssay (NCI).
